Biological target: Multidrug resistance protein 1a (Rattus norvegicus) (UniProt Q6PSM0)
Experiment: TP_TRANSPORTER: uptake, inhibited by C219 antibody in bile canalicular membrane vesicles from SD rat
Format: functional, cell membranes
Conditions: Sprague-Dawley, Bile canalicular membrane vesicle

Sequence of Multidrug resistance protein 1a (Rattus norvegicus) (Q6PSM0 as listed by the source): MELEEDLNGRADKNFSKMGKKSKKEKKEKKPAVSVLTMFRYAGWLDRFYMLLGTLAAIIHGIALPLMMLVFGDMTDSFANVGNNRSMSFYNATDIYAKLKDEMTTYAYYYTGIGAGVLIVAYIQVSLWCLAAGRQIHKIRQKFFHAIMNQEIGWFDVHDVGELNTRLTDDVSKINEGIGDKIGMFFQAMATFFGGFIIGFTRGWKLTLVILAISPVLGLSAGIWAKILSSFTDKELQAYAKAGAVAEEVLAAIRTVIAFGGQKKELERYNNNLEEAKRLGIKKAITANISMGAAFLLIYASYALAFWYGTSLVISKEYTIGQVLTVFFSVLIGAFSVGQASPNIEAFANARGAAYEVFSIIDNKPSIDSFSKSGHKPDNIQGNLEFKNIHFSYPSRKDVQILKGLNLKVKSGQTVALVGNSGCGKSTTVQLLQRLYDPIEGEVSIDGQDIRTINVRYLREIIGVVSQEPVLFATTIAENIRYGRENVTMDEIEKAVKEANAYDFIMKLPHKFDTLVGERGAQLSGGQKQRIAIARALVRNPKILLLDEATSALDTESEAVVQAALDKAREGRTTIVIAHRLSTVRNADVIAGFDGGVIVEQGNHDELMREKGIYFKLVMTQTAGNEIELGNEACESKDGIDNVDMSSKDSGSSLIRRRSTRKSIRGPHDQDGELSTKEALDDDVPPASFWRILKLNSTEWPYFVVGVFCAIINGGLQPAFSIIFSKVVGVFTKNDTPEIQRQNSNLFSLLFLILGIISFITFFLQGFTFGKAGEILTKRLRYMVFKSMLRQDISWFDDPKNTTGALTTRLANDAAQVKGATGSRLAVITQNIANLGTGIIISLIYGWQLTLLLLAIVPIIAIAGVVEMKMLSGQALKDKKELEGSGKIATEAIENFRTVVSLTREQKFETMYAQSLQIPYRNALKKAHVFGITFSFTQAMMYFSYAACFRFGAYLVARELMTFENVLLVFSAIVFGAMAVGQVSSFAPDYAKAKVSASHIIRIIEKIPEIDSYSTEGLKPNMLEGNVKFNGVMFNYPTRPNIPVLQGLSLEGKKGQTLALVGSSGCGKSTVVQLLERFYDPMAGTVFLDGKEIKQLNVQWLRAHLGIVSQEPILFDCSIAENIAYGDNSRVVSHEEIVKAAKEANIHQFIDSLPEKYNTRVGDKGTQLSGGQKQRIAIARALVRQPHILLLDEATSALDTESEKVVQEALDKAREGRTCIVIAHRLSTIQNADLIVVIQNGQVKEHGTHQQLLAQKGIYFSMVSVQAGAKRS

## C[C@]12CC[C@@H]3c4ccc(O)cc4CC[C@H]3[C@@H]1CC[C@@H]2O[C@@H]1O[C@H](C(=O)O)[C@@H](O)[C@H](O)[C@H]1O
  Activity: substrate [+]
